Laboratory results from ChEMBL document CHEMBL3244409, “(2,6-Methano-3-benzazocin-11 beta-yl)alkanones. 1. Alkylalkanones: a new series of N-methyl derivatives with novel opiate activity profiles” (1979).

Tests used:
Format in all cases: functional
Rattus norvegicus [1] = experiment: Analgesic activity in rat at 120 mg/kg, sc by tail flick test; conditions: route subcutaneous
Mus musculus [2] = experiment: Analgesic activity in sc dosed mouse by acetylcholine writhing test
Rattus norvegicus [3] = experiment: Analgesic activity in sc dosed rat assessed as inhibition of phenazocine-induced effect
Rattus norvegicus [4] = experiment: Analgesic activity in sc dosed rat by tail flick test
Rattus norvegicus [5] = experiment: Analgesic activity in sc dosed rat assessed as inhibition of morphine-induced effect
Rattus norvegicus [6] = experiment: Analgesic activity in sc dosed rat assessed as inhibition of meperidine-induced effect
Rattus norvegicus [7] = experiment: Analgesic activity in sc dosed rat by intracarotid bradykinin test
Mus musculus [8] = experiment: Analgesic activity in mouse at 25 mg/kg, sc by acetylcholine writhing test; conditions: route subcutaneous
Rattus norvegicus [9] = experiment: Analgesic activity in rat at 240 mg/kg, sc by tail flick test; conditions: route subcutaneous
[10] = Mus musculus, sc, read-out: ED50
[11] = Rattus norvegicus, Tail, sc, read-out: ED50
[12] = Rattus norvegicus, sc, read-out: ED50

| Compound | ED50 (Mus musculus [2]; [10]) [mg/kg] | AD50 (Rattus norvegicus [3]) [mg/kg] | ED50 (Rattus norvegicus [4]; [11]) [mg/kg] | ED50 (Rattus norvegicus [7]; [12]) [mg/kg] | further results |
| --- | --- | --- | --- | --- | --- |
| COc1ccc2c(c1)[C@@]1(C)CCN(C)C(C2)[C@@]1(C)CCC(C)=O.Cl (mixture of isomers) | 3.5 | – | – | – | Activity (Rattus norvegicus [1]): 66% |
| CC(C)CCC(=O)CC[C@]1(C)C2Cc3ccc(O)cc3[C@@]1(C)CCN2C.Cl (stereo in doubt; (-)-3i) | – | 0.088 | – | – | Activity (Rattus norvegicus [1]): 46%; ED50 (Mus musculus [2]): 0.016 mg/kg |
| CCCC(=O)CC[C@]1(C)C2Cc3ccc(OC)cc3[C@@]1(C)CCN2C.CS(=O)(=O)O (mixture of isomers) | 0.89 | 80 | 2 | – | – |
| C=CCN1CC[C@]23c4c5ccc(O)c4O[C@H]2C(=O)CC[C@@]3(O)[C@H]1C5 [NALOXONE] | 60 | 0.008 | – | – | AD50 (Rattus norvegicus [5]): 0.004 mg/kg; AD50 (Rattus norvegicus [6]): 0.004 mg/kg |
| CC(C)CCCC(=O)CC[C@]1(C)C2Cc3ccc(O)cc3[C@@]1(C)CCN2C (mixture of isomers) | 5.3 | 0.029 | 120 | – | – |
| CCCCCC(=O)CC[C@]1(C)C2Cc3ccc(O)cc3[C@@]1(C)CCN2C.CS(=O)(=O)O (stereo in doubt; (+)-3e) | – | 80 | 95 | – | ED50 (Mus musculus [2]): 11 mg/kg; ED50 (Rattus norvegicus [7]): 50 mg/kg |
| CCCC(=O)CC[C@]1(C)C2Cc3ccc(O)cc3[C@@]1(C)CCN2C.Cl (mixture of isomers) | 0.023 | 80 | 0.099 | 0.019 | – |
| COc1ccc2c(c1)[C@@]1(C)CCN(C)C(C2)[C@@]1(C)CCC(=O)C(C)C.CS(=O)(=O)O (mixture of isomers) | 5 | 80 | – | – | Activity (Rattus norvegicus [1]): 42% |
| CCCCCCC(=O)CC[C@]1(C)C2Cc3ccc(OC)cc3[C@@]1(C)CCN2C.Cc1ccc(S(=O)(=O)O)cc1 (mixture of isomers) | – | 80 | 120 | – | Activity (Mus musculus [8]): 20% |
| C[C@H]1[C@H]2Cc3ccc(O)cc3[C@]1(C)CCN2CC1CC1 [CYCLAZOCINE] | – | 0.028 | – | – | AD50 (Rattus norvegicus [5]): 0.029 mg/kg; AD50 (Rattus norvegicus [6]): 0.024 mg/kg |
| CCCCC(=O)CC[C@]1(C)C2Cc3ccc(OC)cc3[C@@]1(C)CCN2C.Cl (mixture of isomers) | 0.63 | 1 | 1.35 | – | – |
| CC(C)CC(=O)CC[C@]1(C)C2Cc3ccc(O)cc3[C@@]1(C)CCN2C.Cl (mixture of isomers) | 0.019 | 0.01 | 0.067 | 0.019 | – |
| CC(C)CCC(=O)CC[C@]1(C)C2Cc3ccc(O)cc3[C@@]1(C)CCN2C.Cl (mixture of isomers) | – | 0.3 | – | 0.032 | AD50 (Rattus norvegicus [5]): 0.58 mg/kg; AD50 (Rattus norvegicus [6]): 0.73 mg/kg; ED50 (Mus musculus [2]): 0.074 mg/kg; Activity (Rattus norvegicus [9]): 47% |
| CO[C@@]12CC[C@@]3(C[C@@H]1[C@](C)(O)C(C)(C)C)[C@H]1Cc4ccc(O)c5c4[C@@]3(CCN1CC1CC1)[C@H]2O5 [BUPRENORPHINE] | 0.059 | 0.11 | – | 0.004 | Activity (Rattus norvegicus [1]): 14% |
| COc1ccc2c(c1)[C@@]1(C)CCN(C)C(C2)[C@@]1(C)CCC(=O)CCCC(C)C.Cl (mixture of isomers) | 7.5 | 80 | – | – | Activity (Rattus norvegicus [1]): 70% |
| CCCCCC(=O)CC[C@]1(C)C2Cc3ccc(O)cc3[C@@]1(C)CCN2C.Cl (mixture of isomers) | 0.24 | 0.008 | 120 | 0.043 | AD50 (Rattus norvegicus [5]): 0.098 mg/kg; AD50 (Rattus norvegicus [6]): 0.19 mg/kg |
| CCCCCC(=O)CC[C@]1(C)C2Cc3ccc(OC)cc3[C@@]1(C)CCN2C.Cl (mixture of isomers) | 1.5 | 10 | 30 | – | – |
| CCCCC(=O)CC[C@]1(C)C2Cc3ccc(O)cc3[C@@]1(C)CCN2C.Cl (mixture of isomers) | 0.017 | 0.1 | 0.039 | 0.012 | – |
| CC(=O)CC[C@]1(C)C2Cc3ccc(O)cc3[C@@]1(C)CCN2C.CS(=O)(=O)O (mixture of isomers) | – | – | 2.5 | 0.19 | – |
| CCC(=O)CC[C@]1(C)C2Cc3ccc(O)cc3[C@@]1(C)CCN2C.Cl (mixture of isomers) | 0.18 | 1 | 0.99 | – | – |
| CC(C)CCC(=O)CC[C@]1(C)C2Cc3ccc(O)cc3[C@@]1(C)CCN2C.Cl (stereo in doubt; (+)-3i) | – | 20 | 120 | – | ED50 (Mus musculus [2]): 10 mg/kg |
| CCCCCC(=O)CC[C@]1(C)C2Cc3ccc(O)cc3[C@@]1(C)CCN2C.CS(=O)(=O)O (single isomer, unassigned; (-)) | – | 0.005 | – | – | ED50 (Rattus norvegicus [4]): 95 mg/kg; ED50 (Mus musculus [2]): 0.19 mg/kg; ED50 (Rattus norvegicus [7]): 0.022 mg/kg |
| CN1CC[C@]23c4c5ccc(O)c4O[C@H]2[C@@H](O)C=C[C@H]3[C@H]1C5 [MORPHINE] | – | – | 3.9 | 2.3 | – |
| CCCCCCC(=O)CC[C@]1(C)C2Cc3ccc(O)cc3[C@@]1(C)CCN2C.Cl (mixture of isomers) | 12 | 0.04 | 120 | 2.2 | – |
| CC(=O)CC[C@]1(C)C2Cc3ccc(O)cc3[C@@]1(C)CCN2C (mixture of isomers) | 0.25 | 40 | – | – | – |
| COc1ccc2c(c1)[C@@]1(C)CCN(C)C(C2)[C@@]1(C)CCC(=O)CC(C)C.CS(=O)(=O)O (mixture of isomers) | 1 | 80 | 4.3 | – | – |
| CC(C)C(=O)CC[C@]1(C)C2Cc3ccc(O)cc3[C@@]1(C)CCN2C.Cl (mixture of isomers) | 0.11 | 80 | 24 | 0.12 | – |
| COc1ccc2c(c1)[C@@]1(C)CCN(C)C(C2)[C@@]1(C)CCC(=O)CCC(C)C.Cl (mixture of isomers) | 2 | 80 | 16 | 2.4 | – |
| CCC(=O)CC[C@]1(C)C2Cc3ccc(OC)cc3[C@@]1(C)CCN2C.CS(=O)(=O)O (mixture of isomers) | 1.9 | 1 | 5.9 | – | – |
